In patent publication US4446133A, “1-Phenyl-4-carbamoyl piperazine compounds, process for preparation thereof and utilizations thereof” (Misuitoatsu Chemicals, Inc., priority 1980, dated 1984):
Where a name gives a salt, the structure may show the parent alone.

Key:
delayed hypersensitivity = assay: Test 1: Test of Reinforcement of Delayed Hypersensitivity (picryl chloride); assay type: in vivo, ICR male mice; settings: mouse, in vivo
Text: This system was used for the test of reinforcement of delayed hypersensitivity.
One group of eight ICR male mice, each having a body weight of about 30 g, were used for the test.
Sensitization was effected by coating a 7% solution of picryl chloride in a 4/1 mixture of olive oil and acetone on the shaved abdomen of the mouse.
Simultaneously with sensitization, a solution or suspension of the compound of the present invention in a 0.2% solution of carboxymethyl cellulose in a physiological saline was orally administered to the mouse at a dose of 50 mg per Kg of the body weight. To the control group, a 0.2% carboxymethyl cellulose solution in a physiological saline was similarly administered.
The delayed hypersensitivity was challenged 7 days after sensitization by gripping the ear of the mouse by a forceps wrapped with a felt impregnated with a 1% solution of picryl chloride in olive oil and coating the ear with the solution. The thickness of the ear was measured before challenging and 24 hours after challenging and the ratio of increase of the thickness (average value of both the ears in eight mice±standard deviation) was obtained as shown in Table 1.
For comparison, the test was similarly carried out by using Levamisole hydrochloride, and the obtained results are shown in Table 1. F.t tests were carried out. The group in which the test result was significant at a level of P<0.05 was marked by *, and the group in which the test result was significant at a level of P<0.01 was marked by **.

EL-4 leukemic cells = assay: Test 3: In-Vitro Test of Inhibition of Growth of Cancer Cell by Macrophage; assay type: cell-based; settings: for Inhibition of take-in of 3H-thymidine by EL-4 cells / activation of macrophage, in words: 8 mg/kg intraperitoneal
Experimental: The results of the test of the action of the effective ingredient of the present invention on the macrophage will now be described with reference to the following Test 3. More specifically, the separated macrophage and EL-4 leukemic cell were mixed and cultured, and ^3 H-thymidine was added to a culture medium and the quantity of ^3 H-thymidine incorporated into the EL-4 cell was determined to examine the activity of the macrophage. When the macrophage is activated by administration of the effective ingredient of the present invention, inhibition of the growth of EL-4 cell, that is, phagocytosis of the cancer cell by the macrophage, is observed. Accordingly, if the take-in amount of ^3 H-thymidine is measured and this amount is reduced, it is confirmed that the macrophage has been activated. […] The dose was 8 mg per Kg of the body weight. To the control group, a physiological saline solution was similarly administered. After passage of 4 days, exuded abdominal cells were collected and deposited on a plastic Petri dish to collect macrophages. Then, 1×10^6 of so obtained macrophages and 1×10^5 of EL-4 leukemic cells of C57 BL/6J mouse were mixed and cultured in an RPMI 1640 culture medium to which 10% of bovine embryo serum was added (at 37° C. in the presence of 5% of CO2) for 24 hours. Then, 0.1μ Ci of ^3 H-thymidine was added and culturing was further conducted for 16 hours. Cells were collected on a filter paper from the culture medium and the amount of ^3 H-thymidine taken in was determined by a liquid scintillation counter. […] For comparison, the test was similarly carried out by using Levamisol hydrochloride.

Sarcoma 180 [1] = assay: Test 4: Test of Antitumor Effect to Sarcoma 180 by Oral Administration; assay type: in vivo, ICR female mice
Experimental: To the control group, a physiological saline solution was similarly administered. The dose of the compound was 100 mg per Kg of the body weight. The diameter D (mm) of the tumor was measured, and the average value and the number N of the living mice were determined to obtain results shown in Table 4.

Sarcoma 180 [2] = assay: Test 5: Test of Antitumor Effect to Sarcoma 180 by Subcutaneous Administration; assay type: in vivo, ICR female mice; settings: 20 mg/kg subcutaneous
Experimental: To the control group, a physiological saline solution was similarly administered. […] The diameter D (mm) of the tumor was measured, and the average value and the number N of the living mice were determined to obtain results shown in Table 4.

adjuvant arthritis = assay: Test 2: Adjuvant Arthritis Test; assay type: in vivo, SD male rats; settings: 5 mg/kg subcutaneous, 9 times, left hind leg, * P<0.05, ** P<0.01

With `c1ccc([C@H]2CN3CCSC3=N2)cc1` [Levamisole hydrochloride, reference compound] the “Ratio of Increase of Ear Thickness (average value ± standard variation)” value (delayed hypersensitivity) was 35.6 ± 2.4%, the “Inhibition of take-in of 3H-thymidine by EL-4 cells / activation of macrophage, in words” value (EL-4 leukemic cells) was “does not exhibit such action” and the “Take-in Ratio of 3H-thymidine (average value)” value (EL-4 leukemic cells; 8 mg/kg intraperitoneal to mice, macrophages collected after 4 days, mixed with EL-4 cells, control 80.2) was 49.0%. For the same compound, the “Inhibition of take-in of 3H-thymidine by EL-4 cells / activation of macrophage, in words” value (EL-4 leukemic cells; listed as Levamisole) was “hardly exhibits such action”, the “D: average diameter of tumor, 2 weeks” value (Sarcoma 180 [1]; 100 mg/kg oral once a day, 10 days, 2 weeks, control 10.6) was 10.2 mm and the “D: average diameter of tumor, 4 weeks” value (Sarcoma 180 [1]; 100 mg/kg oral once a day, 10 days, 4 weeks, control 15.2) was 16.2 mm. For the same compound, the “D: average diameter of tumor, 6 weeks” value (Sarcoma 180 [1]; 100 mg/kg oral once a day, 10 days, 6 weeks, control 22.4) was 20.7 mm, the “D: average diameter of tumor, 8 weeks” value (Sarcoma 180 [1]; 100 mg/kg oral once a day, 10 days, 8 weeks, control 31.5) was 29.6 mm and the “D: average diameter of tumor, 10 weeks” value (Sarcoma 180 [1]; 100 mg/kg oral once a day, 10 days, 10 weeks, control 37.6) was 28.1 mm. For the same compound, the “Carcinostatic action on Sarcoma 180, in words” value (Sarcoma 180 [1]; 100 mg/kg oral, repeated) was “no substantial carcinostatic action was observed”, the “N: number of living mice, 0 weeks” value (Sarcoma 180 [1]; 100 mg/kg oral, of 6 mice, 0 weeks, control 6) was 6 and the “N: number of living mice, 2 weeks” value (Sarcoma 180 [1]; 100 mg/kg oral, of 6 mice, 2 weeks, control 6) was 6. The “N: number of living mice, 4 weeks” value (Sarcoma 180 [1]; 100 mg/kg oral, of 6 mice, 4 weeks, control 6) was 6, the “N: number of living mice, 6 weeks” value (Sarcoma 180 [1]; 100 mg/kg oral, of 6 mice, 6 weeks, control 6) was 6 and the “N: number of living mice, 8 weeks” value (Sarcoma 180 [1]; 100 mg/kg oral, of 6 mice, 8 weeks, control 5) was 6. The “N: number of living mice, 10 weeks” value (Sarcoma 180 [1]; 100 mg/kg oral, of 6 mice, 10 weeks, control 1) was 3, the “Carcinostatic activity on Sarcoma 180, in words” value (Sarcoma 180 [2]) was “no substantial carcinostatic activity” and the “D: average diameter of tumor, 2 weeks” value (Sarcoma 180 [2]; 2 weeks, control 10.8) was 7.7 mm. For the same compound, the “D: average diameter of tumor, 4 weeks” value (Sarcoma 180 [2]; 4 weeks, control 16.6) was 14.8 mm, the “D: average diameter of tumor, 6 weeks” value (Sarcoma 180 [2]; 6 weeks, control 20.3) was 14.4 mm and the “D: average diameter of tumor, 8 weeks” value (Sarcoma 180 [2]; 8 weeks, control 31.3) was 30.2 mm. The “D: average diameter of tumor, 10 weeks” value (Sarcoma 180 [2]; 10 weeks, control 40.5) was 31.6 mm, the “N: number of living mice, 0 weeks” value (Sarcoma 180 [2]; of 6 mice, 0 weeks, control 6) was 6 and the “N: number of living mice, 2 weeks” value (Sarcoma 180 [2]; of 6 mice, 2 weeks, control 6) was 6. The “N: number of living mice, 4 weeks” value (Sarcoma 180 [2]; of 6 mice, 4 weeks, control 6) was 6, the “N: number of living mice, 6 weeks” value (Sarcoma 180 [2]; of 6 mice, 6 weeks, control 6) was 6 and the “N: number of living mice, 8 weeks” value (Sarcoma 180 [2]; of 6 mice, 8 weeks, control 4) was 3. For the same compound, the “N: number of living mice, 10 weeks” value (Sarcoma 180 [2]; of 6 mice, 10 weeks, control 1) was 2, the “Swelling Ratio (average value ± standard variation), 15 days” value (adjuvant arthritis; 15 days, control 84.4 ± 9.0) was 65.2 ± 5.9% and the “Swelling Ratio (average value ± standard variation), 18 days” value (adjuvant arthritis; 18 days, control 103.2 ± 9.7) was 69.3 ± 7.1%. For the same compound, the “Swelling Ratio (average value ± standard variation), 21 days” value (adjuvant arthritis; 21 days, control 107.5 ± 13.3) was 80.7 ± 9.6%.
